Test results taken from publication PMC12648313, “Enhancing the Efficacy, Utility, and Throughput of the Transcription Block Survival Peptide Library Screening Platform” (JACS Au, 2025).

Legend:
ATF2 [1] = molecular target: T1, ATF2 (Homo sapiens, UniProt P15336); test: Circular dichroism spectra; format: binding; settings: pH 7.4
T1 construct: human ATF2 bZIP domain spans from Asp352 to Gln410; made in house; host or cells: chemical synthesis (Fmoc solid-phase peptide synthesis), no expression host
T1 sequence (P15336 352-410): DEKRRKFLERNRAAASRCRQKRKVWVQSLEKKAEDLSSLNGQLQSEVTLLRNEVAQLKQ
Text: (§1) removed before peptide concentration determination.
(§2) Peptide samples were suspended in 20

ATF2 [2] = molecular target: T1, ATF2; test: CD thermal denaturation, ATF2/ATF2W mixture; format: binding
Text: as §1, §2

CREB1-CRE complex = molecular target: T2, CREB1-CRE complex (Homo sapiens, UniProt P16220); test: FP antagonism assay CREB1-CRE; format: biochemical; settings: FP IC50, CREB1-CRE vs ATF2-CRE
T2 construct: Ala283 to Asp341
T2 sequence (P16220 283-341 isoform P16220-1): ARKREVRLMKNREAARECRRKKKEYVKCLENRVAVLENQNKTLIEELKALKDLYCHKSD
Procedure: Fluorescence polarization (FP) was next utilized to confirm that ATF2W binding induces the intended antagonism of the ATF2-CRE interaction. […] To assess ATF2W antagonism, 625 nM ATF2, which corresponded to 80% of the maximum DNA binding, was incubated with CRE DNA (10 nM) and varied concentrations of ATF2W (29 nM-12 μM). […] This represents a ∼ 3-fold selectivity for ATF2. […] As the peptide library was designed using established coiled coil interaction rules, it was expected that many sequences would bind the target.
(DMF). Deprotection was performed by addition of 0.75 mL 30% pyrrolidine into the coupling reaction. Peptides were acetylated at the N-terminus by a final reaction with 3x acetic anhydride, 4.5x diisopropylethylamine in DMF for one hour at room temperature. Incubation in a cleavage mixture (95% TFA, 2.5% triisopropylsilane, 2.5% H2O, 10 mL) for 4 h at room temperature cleaved the peptide from the resin and removed side chain protecting groups.
2.5% DODT was added to the cleavage cocktail for ATF2. The resin was removed by filtration and cleaved peptides were precipitated in diethyl ether at -80°C and centrifuged.
This pellet was washed a further four times with diethyl ether before it was dried overnight at room temperature. […]

cJun-TRE complex = molecular target: T3, cJun-TRE complex (Homo sapiens, UniProt P05412); test: FP antagonism assay cJun-TRE; format: biochemical
T3 construct: In the case of the CREB1 and cJun bZIP domains

DLX5/H-Box complex = test: FP antagonism assay DLX5/H-Box; format: biochemical; settings: FAM-H-Box DNA, over the concentration range tested
FAM-CRE DNA = test: FP binding of ATF2W to CRE DNA; settings: ATF2W 9 nM-10 μM, FAM-CRE DNA 10 nM, up to 1000x excess
Procedure: as §1, §2
Post-melt scans at 20°C confirmed the
Sequential 2 µL injections of ATF2W (50 µM)
Data from a control experiment whereby […]
errors are given as one standard deviation.
Fluorescence polarisation: Fluorescence polarisation was measured in a CLARIOstar […]
chloride, 5 mM MgCl2, 10 mM TCEP, pH 7.4 buffer. Palindromic FAM-CRE DNA oligo was […]
purchased from Merck: 5’[6FAM]- […]. 200 µM of the oligo was […]
prepared in water and then annealed by heating to 95°C for 10 minutes before cooling slowly to room temperature to give a 100 µM duplex stock. Samples containing 10 nM FAM-CRE and a serial dilution of ATF2 (12 nM-10 µM) were prepared and incubated at room temperature for 1 hour before transferring to the assay plate for measurement. Data were fit to a one site binding model. For antagonism experiments, the ATF2 concentration required for 80% response was selected. Samples containing 10 nM FAM-TRE, 625 nM ATF2 and a serial dilution of ATF2W (29 nM-12 µM) were prepared and incubated at room temperature for 2 hours before transferring to the assay plate for measurement. CREB1/CRE, cJun/TRE and DLX5/H-box DNA antagonism were determined by the equivalent experiments, using the FAM-CRE oligo above; FAM-TRE DNA oligoes: 5’-[6FAM]-[…], 5’- […]
[6FAM]-[…]; and palindromic FAM-H-Box oligo: 5’-[6FAM]- […]

Ac-LEQQLEELAQENEELEKEAAELQQQIARLKNEVAKLENENKTLDREIKALQREYSHKSD-NH2 [ATF2W]
increase in helicity upon mixing, relative to the average (ATF2 [1]; 1:1 mixture with ATF2 (5 μM each) vs average of individual components (10 μM each), 20 mM potassium phosphate, 150 mM potassium fluoride, 10 mM TCEP.HCl, 222 nm): 32% | 222/208 ratio of heterodimer spectrum (ATF2 [1]; 1:1 mixture with ATF2 (5 μM each)): 0.8 | ΔTm relative to ATF2W alone (ATF2 [2]; heterodimeric ATF2/ATF2W sample vs ATF2W alone): 18 °C | Tm (ATF2 [2]; heterodimeric ATF2/ATF2W sample, 222 nm, 1 to 95 °C, pH 7.4, 10 mM TCEP.HCl, two-state model): 55 °C | fold selectivity for ATF2 over CREB1 (CREB1-CRE complex): ~3 -fold | fold selectivity for ATF2 over cJun (cJun-TRE complex; FP IC50, cJun-TRE vs ATF2-CRE): ~3 -fold | IC50 (cJun-TRE complex; FP, FAM-TRE DNA, equivalent experiment, pH 7.4): 1850 ± 213 nM | antagonism of DLX5/H-Box interaction (DLX5/H-Box complex): minimal antagonism | interaction with CRE DNA (FAM-CRE DNA): does not interact with CRE DNA
